The Papp is the rate of passage across a membrane or cell layer, normalised by area and donor concentration.

The values that follow come from paper PMC7363885, “Fluorescent artificial receptor-based membrane assay (FARMA) for spatiotemporally resolved monitoring of biomembrane permeability” (Communications Biology, 2020).

How the values of data set [1] were obtained: Supplementary Table 3 | Qualitative assessment of membrane permeability for more tha n 90 different organic compoundsa investigated by the FARMA-assay with receptors FAR-1, FAR-2, and FAR-3, and, for comparison, investigations by the dye displacement signal generation strategy with the sensing ensembles (CB8•MV•2,6-ANS, CB8•MV•5HO-Trp, CB7•BE, and CB7•PAL). […]
a See also Fig. 2 in main text for chemical structures. b λexc = 400 nm, λobs = 450 nm. c λexc = 310 nm, λobs = […]
ethanol (10 mM stock). m Emerging excimer band at λobs = 500 nm was monitored. n Control experiment in the absence of host (CB8) was also carried out. o λobs = 500 nm was chosen to by-pass the self-fluorescence

In data set [2] the test system is FAR-2. The data set can be described thus: Fluorescence titration, FAR•analyte complex formation in homogeneous solution. Conditions: 10 mM HEPES buffer (pH 7), 1:1 binding model, error estimate ≤ 20%. The method, then: (§1) Fluorescence titrations were carried out in aqueous HEPES buffer (10 mM, pH 7, 22 °C) unless stated otherwise. To a solution of the FAR (typically at 10–30 μM) was stepwise added a solution of the analyte (typically up to 2 mM) and the fluorescence spectra were recorded. The normalized emissions at 450 nm (FAR-1) or at 370 nm (FAR-2) were fitted with an equation for a 1 : 1 binding by a least-square fit. The resulting affinity constants are reported in Supplementary Table 1. Representative titration plots are shown in Supplementary Fig. 1.

The nature of data set [3]: Dye displacement membrane assay (liposome-encapsulated host•dye ensembles). The source says:
Supplementary Figure 13 | Graphical representation of membrane assays using dye displacement for signaling. Diffusion of analytes through a lipid membrane is detected by displacement of the dye from (a) a host•dye or (b) a host•dye•quencher complex, leading to reduction or enhancement in emission intensity.
Supplementary Figure 14 | Membrane permeation monitoring of analytes by dye displacement. (a) Time-resolved changes in fluorescence intensity of CB7•BE-loaded liposomes (λexc = 347 nm, λobs = 500 nm) upon addition of the membrane-permeable analyte tyramine and membrane destabilizing peptide melittin.
(b) Evolution of fluorescence intensity after addition of dimethylbenzylamine (DMBA) to CB7•PAL-loaded liposomes (λexc = 347 nm, λobs = 500 nm). (c) Fluorescence response after addition of the […]
tryptophan to liposomes loaded with CB8•MV•2,6-ANS (λexc = 380 nm, λobs = 463 nm). […]
Combing equations S1 and S2, one arrives at Papp = kp∙(r/3) = kobs/canalyte∙cFAR∙(r/3) (equation 1 in main text)
Dye displacement membrane assay
Dye displacement membrane assays rely on selective encapsulation of reporter pairs inside liposomes and the reversible interaction between the receptor and the translocated analyte. To conduct the assay, liposomes containing the chemosensing ensemble composed of a macrocyclic host and a dye are prepared and purified, such that a subsequently added analyte affects the dye fluorescence only if it can enter the vesicle and displaces the dye from the macrocycle. Until now, only the dye displacement has been used as the signaling mechanism for tandem membrane assays,3, 4 whereby the competitive displacement of the dye from such host•dye complexes upon analyte addition restores the fluorescence features of the dye in solution, Supplementary Figures 13 - 14.
Specifically, this signaling mechanism has been mostly employed with macrocyclic host s with cavity space that is capable o f forming 1:1 complex es, e.g., cucurbit[7]uril (CB7) and the dyes berberine (BER) or palmatine (PAL), see Supplementary Figure 13a, or with p-sulfonato calix[4]arene (CX4) and lucigenin.3,4 Expanding the repertoire of chemosensors for tandem membrane assay s, we exploit herein also the ability of a larger macrocyclic host such as cucurbit[8]uril (CB8) to form 1:1:1 ternary complexes,5-7 and utilize here the quencher methyl viologen (MV) in combination with the fluorescent dyes 5-hydroxy tryptophan (5HO-Trp), 2-anilinonaphthalene -6-sulfonic acid (2,6-ANS) or dapoxyl sulfonic acid, sodium salt (DapoxS), Supplementary Figure 13b. Upon addition of an analyte, the fluorescent dye, the quencher or both the fluorescent dye and quencher are displaced from the CB8 cavity, which in each case is reflected by an increase in the emission intensity of the dye (switch -on displacement assay), Supplementary Figures 14- […]
The dye displacement signal strategy has two important disadvantages compared to the preferred fluorescent artificial receptor (FAR) assays:
(i) The dye displacement strategy is limited to strongly binding analytes, i.e., K(analyte) ≥ K(dye), otherwise a large excess concentration of analyte is needed to generate significant

Data set [4] can be described thus: in vitro. The source says: Elementary physical parameters, such as permeability coefficients, can be extracted from the full kinetic FARMA data. This kinetic profile → parameter mapping requires some assumptions to be made in regard to the permeation mechanism. We applied a reported permeation model for liposomes[31] to arrive at permeation rate constants (kp) and apparent permeability coefficients (Papp). The derivation of the mathematical relation (1), linking the fundamental permeability rate constant and permeability coefficient to experimental measurable kobs rate constants, the known total analyte and total FAR concentration, and the experimentally determined liposome radius (r), is shown in the Supplementary Information.1 Papp=kp⋅r/3=kobs/canalyte⋅cFAR⋅r/3 […]
The volume-to-surface correction factor r/3 accounts for the fact that the observed rates depend on the size, i.e., radius r, of the liposomal assembly. […] The initial-rate method can also be applied, see the Supplementary Information. Moreover, kobs/canalyte can be estimated by single-point measurements at selected canalyte concentration.
A solution of 2.5 mg/mL of POPC and 0.33 mg/mL of POPS in chloroform was purged with nitrogen and dried overnight under […] vacuum. […] The resulting FAR-loaded liposomes were separated from non-encapsulated species by size-exclusion chromatography (NAP-25 column), while maintaining the same buffer. The absence of non-encapsulated FAR was confirmed by adding a non-membrane-permeable species such as tryptophan to a fluorescence cuvette containing 25 µL of liposomes diluted in 1 mL HEPES (10 mM) buffer. Complete removal of non-encapsulated FAR is indicated by the absence of a significant fluorescence change upon Trp addition.
In a typical experiment, 20 µL of liposome solution loaded with FAR was diluted in 1 mL HEPES buffer (10 mM, pH 7.0) in a 1 mL quartz cuvette. An emission spectrum was recorded after 10 min of “equilibration time” on a Varian Eclipse spectrofluorometer thermostated at 22 °C with a water bath using λexc = 400 nm for FAR-1, λexc = 310 nm for FAR-2, and λexc = 330 nm for FAR-3. In the time-resolved experiments, the emission intensity at λobs = 450 nm for FAR-1, λobs = 370 nm for FAR-2, and λobs = 370 and 500 nm for FAR-3 (the latter is the emerging excimer band for certain FAR-3•analyte complexes) was recorded with an averaging time of 0.5 s. […] For single-point experiments, a full spectrum was recorded after a fixed time or several time intervals after analyte addition. […] Only FAR-analyte combinations were used for FARMA, for which no significant autofluorescence and competitive light absorption of the analyte occurred.
For each experiment, measurements from 6 injections were accumulated and the average of these traces was used for data analysis.
Calculation of the unimolecular permeation rate constants ( kp) and of the apparent permeability coefficients (Papp).
The passive diffusion (permeation) of small non-charged compounds follows a modified Fick’s law and can be expressed by a first order kinetics.1 Similar to first order chemical reactions, the kinetics curve can therefore be fitted monoexponentially to obtained the observed permeation rates (kobs). In our assay set-up, such an exponential fit is an approximation, since it neglects that a certain fraction of transported analyte is bound to the FAR and cannot exit the liposome. Nevertheless, the fit of the kinetic curves of the […]
approximation is justified.

Data set [5] deals with FAR-1. As to the kind of experiment: Fluorescence titration, FAR•analyte complex formation in homogeneous solution. In kind it is binding. Here is the method:
as §1, with “Fig. 1. Note that the high CB8-dye binding affinities correspond to a near quantitative degree of host-dye complexation, i.e., quantitative formation of the FAR, such that the subsequent binding of the analyte can be treated independently.” for “Fig. 1.”

For data set [6] the following is noted: PAMPA; cited from earlier work. For orientation: The PAMPA barrier holds no transporters, so it reflects passive diffusion.
The subject of data set [7] is Caco-2. Conditions: cited from earlier work.
Setting [8] is: monoexponential fit, analyte 40 µM (bulk), FAR-2 ca. 500 µM in the liposome interior, 20% error.
Setting [9] is: FAR-1, 10 mM HEPES buffer (pH 7), 1:1 binding model, error estimate ≤ 20%.
Setting [10] is: dye displacement, CB7•BE-, CB8•MV•5OH-Trp- or CB8•MV•2,6-ANS-loaded liposomes.

Read-outs that look alike come from different tables or passages of the source. Marks after values point to notes of the source that are not given here.

As for `Clc1ccccc1Cl` [1,2-dichlorobenzene], in data set [1], the “Qualitative assessment of membrane permeability” value (“Qualitative assessment” for short) was “+”.

In the case of `Oc1ccc(O)cc1` [1,4-dihydroxybenzene], the Ka in data set [2] is listed as 2.9 10^3 M−1.

Regarding `O=C(O)C1C2CC3CC(C2)CC1C3` (stereo not shown) [2-adamantyl-carboxylate], in data set [3], the “membrane permeability (in words)” value is “membrane-permeable, albeit at a slower rate”.

As for `Oc1ccc2ccccc2c1` [2-naphthol], the “membrane permeability (in words)” value in data set [4] is “permeable”. The “Qualitative assessment” value in data set [1] was “+”.

For `N#Cc1ccccc1O` [2CN-phenol, 2-cyanophenol], the kobs in data set [4] (setting [8]) is reported as 10 s–1. Moreover, in data set [4] (source data of Fig. 5), the “kobs” value is on record as 10 and the “log(kobs)” value is 1. In data set [2], the Ka is reported as 5.8 10^3 M−1.

In the case of `CCOc1ccc(O)cc1` [4-ethoxyphenol], the Ka in data set [5] (setting [9]) is listed as 1 10^3 M−1; in data set [2] it was 1.0 10^3 M−1.

As for `COc1ccc(O)cc1` [4-methoxyphenol], the Ka in data set [2] is listed as 2.4 10^3 M−1.

With `N#Cc1ccc(O)cc1` [4CN-phenol, 4-cyanophenol], in data set [4] (not told, pH 7), the “kobs” value worked out at 40 and the “log(kobs)” value came out at 1.602. Further, the Ka in data set [2] was 5.2 10^3 M−1. In addition, in data set [6], the “Papp Literature” value is given as 17 10^−6 cm s^−1. Also, the “Qualitative assessment” value in data set [1] is “+”.

Take `Nc1ccccc1` [Aniline, aniline]: the Ka was 33 10^3 M−1 in data set [5] (setting [9]) and 25 10^3 M−1 in data set [2]. The kobs came out at 7.5 s–1 in data set [4] (setting [8]) and 7.5 in data set [4] (source data of Fig. 5). Further, the kp in data set [4] (not told, pH 7) is 9400^f. The “log(kobs)” value in data set [4] (source data of Fig. 5) stood at 0.8751. Moreover, in data set [6], the “Papp Literature” value was 76 10^−6 cm s^−1.

Consider `CC12CC3CC(C)(C1)CC(N)(C3)C2` [Memantine, 3,5-dimethyladamantan-1-amine, reference compound], for which the Papp in data set [4] (not told, pH 7) was 24 ×10⁻⁶ cm/s. For the same molecule, the “Papp Literature” value in data set [7] is 43 10^−6 cm s^−1.

Consider `N[C@@H](Cc1ccccc1)C(=O)O` [Phe, phenylalanine], for which the Ka in data set [5] (setting [9]) was 5 10^3 M−1. The “membrane permeability (in words)” value in data set [3] (setting [10]) is “membrane impermeable”.

`Oc1ccccc1` [Phenol, phenol]: in data set [5] (pH 7), the Ka is 56. In data set [4] (not told, pH 7), the Papp worked out at 112 ×10⁻⁶ cm/s, the kobs came to 2.7 s–1, the “log(kobs)” value stood at 0.4314 and the “time of FARMA signal response (t)” value was less than 5 s. The “Papp Literature” value in data set [6] was 47.

With `CNC(=C[N+](=O)[O-])NCCSCc1ccc(CN(C)C)o1` [Ranitidine, ranitidine, reference compound], the Ka in data set [5] (setting [9]) was 2 10^3 M−1. Further, the Papp at 100 µM in data set [4] (not told, pH 7) amounted to 0.013 ×10⁻⁶ cm/s. For the same molecule, the “Papp Literature” value in data set [7] (no passive permeation but active transport) is on record as 0.49 10^−6 cm s^−1; in data set [6] it was 0.88 10^−6 cm s^−1.

Take `NC(=O)C(N)Cc1c[nH]c2ccccc12` (stereo not shown) [TrpNH2, tryptophanamide]: the Ka in data set [5] (setting [9]) is listed as 460 10^3 M−1. Besides, the “Papp Literature” value in data set [6] is given as 2.7 10^−6 cm s^−1.

As to `NCCCCCN` [cadaverine], the “membrane permeability (in words)” value in data set [3] (setting [10]) was “membrane impermeable”.

Regarding `COc1ccc(B(O)O)cc1` [p-anisylboronic acid], in data set [2], the Ka is 4.8 10^3 M−1.

For `Cc1ccc(C)cc1` [p-xylene, 1,4-dimethylbenzene], the kobs in data set [4] (setting [8]) was 17 s–1. For the same molecule, in data set [4] (source data of Fig. 5), the “kobs” value is on record as 17 and the “log(kobs)” value was found to be 1.23. Moreover, the “Qualitative assessment” value in data set [1] is listed as “+”.

As to `CC(C)NCC(O)COc1cccc2ccccc12` (stereo not shown) [propranolol, reference compound], the Ka in data set [5] (setting [9]) is reported as 3 10^3 M−1. Also, in data set [3] (setting [10]), the “membrane permeability (in words)” value is recorded as “membrane permeable”.

`O=C([O-])c1ccccc1.[Na+]` [sodium benzoate]: the Ka in data set [2] is < 1 10^3 M−1.

For `NCCCNCCCCNCCCN` [spermine], the “membrane permeability (in words)” value in data set [3] (setting [10]) is on record as “membrane impermeable”.

With `NCCc1ccc(O)cc1` [tyramine], the “membrane permeability (in words)” value in data set [4] (FARMA with FAR-loaded liposomes or GUVs) is “pass the membrane within several minutes to hours”; in data set [3] (setting [10]), “membrane-permeable”.
